Format in all cases: functional, cell-based
In data set [1] the target is T1, ATP-dependent translocase ABCB1 (Homo sapiens, UniProt P08183). Nature of the data set: TP_TRANSPORTER: inhibition of Daunorubicin transepithelial transport (basal to apical)(Daunorubicin: 2 uM, V-104: 15 uM) in MDR1-expressing MDCKII cells. The following applies: dog, mdck-ii.
For data set [2], the target named is T1, ATP-dependent translocase ABCB1. Nature of the data set: TP_TRANSPORTER: inhibition of Vinblastine transepithelial transport (basal to apical) (Vinblastine: 2 uM, Pluronic L61: 0.04%) in MDR1-expressing LLC-PK1 cells. The following applies: pig.
Data set [3] concerns the target ATP-binding cassette sub-family C member 2 (Homo sapiens, UniProt Q92887). In words: TP_TRANSPORTER: inhibition of Vinblastine transepithelial transport (basal to apical)(Vinblastine: 2 uM, Pluronic L61: 0.1%) in MRP2-expressing MDCKII cells. The following applies: dog, mdck-ii.

T1 sequence (P08183 whole entry): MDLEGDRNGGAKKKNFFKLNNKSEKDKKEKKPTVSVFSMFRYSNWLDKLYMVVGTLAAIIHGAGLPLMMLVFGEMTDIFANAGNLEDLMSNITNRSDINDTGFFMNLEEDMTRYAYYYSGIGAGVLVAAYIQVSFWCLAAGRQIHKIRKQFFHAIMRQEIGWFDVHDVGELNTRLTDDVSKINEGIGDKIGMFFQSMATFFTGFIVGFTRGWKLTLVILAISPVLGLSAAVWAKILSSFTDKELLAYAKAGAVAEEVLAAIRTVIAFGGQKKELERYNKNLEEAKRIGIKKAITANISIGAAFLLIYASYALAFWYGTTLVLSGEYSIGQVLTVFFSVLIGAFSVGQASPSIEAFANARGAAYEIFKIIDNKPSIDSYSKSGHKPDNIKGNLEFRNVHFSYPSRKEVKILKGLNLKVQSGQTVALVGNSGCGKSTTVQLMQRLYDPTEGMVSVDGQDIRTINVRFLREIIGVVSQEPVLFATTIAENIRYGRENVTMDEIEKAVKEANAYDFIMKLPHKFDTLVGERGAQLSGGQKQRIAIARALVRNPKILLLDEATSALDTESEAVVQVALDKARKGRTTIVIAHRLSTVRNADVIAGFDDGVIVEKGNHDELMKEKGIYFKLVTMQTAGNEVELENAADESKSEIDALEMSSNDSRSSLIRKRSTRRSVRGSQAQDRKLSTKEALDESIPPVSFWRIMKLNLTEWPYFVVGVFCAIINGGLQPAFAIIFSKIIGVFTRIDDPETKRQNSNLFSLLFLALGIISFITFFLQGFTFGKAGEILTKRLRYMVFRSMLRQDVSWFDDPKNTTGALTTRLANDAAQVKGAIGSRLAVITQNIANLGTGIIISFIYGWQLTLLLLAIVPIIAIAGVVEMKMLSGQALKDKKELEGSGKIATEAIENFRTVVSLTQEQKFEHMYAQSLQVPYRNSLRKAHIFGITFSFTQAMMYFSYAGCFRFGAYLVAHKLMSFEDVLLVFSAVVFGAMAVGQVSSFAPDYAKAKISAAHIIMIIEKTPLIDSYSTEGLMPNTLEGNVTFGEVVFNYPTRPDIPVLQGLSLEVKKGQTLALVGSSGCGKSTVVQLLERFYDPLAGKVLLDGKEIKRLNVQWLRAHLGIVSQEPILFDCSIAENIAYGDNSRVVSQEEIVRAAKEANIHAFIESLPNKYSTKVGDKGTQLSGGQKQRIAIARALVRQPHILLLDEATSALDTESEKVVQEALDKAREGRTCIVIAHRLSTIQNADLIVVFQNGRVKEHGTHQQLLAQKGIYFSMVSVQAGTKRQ
Chain of ATP-binding cassette sub-family C member 2 (Q92887 whole entry): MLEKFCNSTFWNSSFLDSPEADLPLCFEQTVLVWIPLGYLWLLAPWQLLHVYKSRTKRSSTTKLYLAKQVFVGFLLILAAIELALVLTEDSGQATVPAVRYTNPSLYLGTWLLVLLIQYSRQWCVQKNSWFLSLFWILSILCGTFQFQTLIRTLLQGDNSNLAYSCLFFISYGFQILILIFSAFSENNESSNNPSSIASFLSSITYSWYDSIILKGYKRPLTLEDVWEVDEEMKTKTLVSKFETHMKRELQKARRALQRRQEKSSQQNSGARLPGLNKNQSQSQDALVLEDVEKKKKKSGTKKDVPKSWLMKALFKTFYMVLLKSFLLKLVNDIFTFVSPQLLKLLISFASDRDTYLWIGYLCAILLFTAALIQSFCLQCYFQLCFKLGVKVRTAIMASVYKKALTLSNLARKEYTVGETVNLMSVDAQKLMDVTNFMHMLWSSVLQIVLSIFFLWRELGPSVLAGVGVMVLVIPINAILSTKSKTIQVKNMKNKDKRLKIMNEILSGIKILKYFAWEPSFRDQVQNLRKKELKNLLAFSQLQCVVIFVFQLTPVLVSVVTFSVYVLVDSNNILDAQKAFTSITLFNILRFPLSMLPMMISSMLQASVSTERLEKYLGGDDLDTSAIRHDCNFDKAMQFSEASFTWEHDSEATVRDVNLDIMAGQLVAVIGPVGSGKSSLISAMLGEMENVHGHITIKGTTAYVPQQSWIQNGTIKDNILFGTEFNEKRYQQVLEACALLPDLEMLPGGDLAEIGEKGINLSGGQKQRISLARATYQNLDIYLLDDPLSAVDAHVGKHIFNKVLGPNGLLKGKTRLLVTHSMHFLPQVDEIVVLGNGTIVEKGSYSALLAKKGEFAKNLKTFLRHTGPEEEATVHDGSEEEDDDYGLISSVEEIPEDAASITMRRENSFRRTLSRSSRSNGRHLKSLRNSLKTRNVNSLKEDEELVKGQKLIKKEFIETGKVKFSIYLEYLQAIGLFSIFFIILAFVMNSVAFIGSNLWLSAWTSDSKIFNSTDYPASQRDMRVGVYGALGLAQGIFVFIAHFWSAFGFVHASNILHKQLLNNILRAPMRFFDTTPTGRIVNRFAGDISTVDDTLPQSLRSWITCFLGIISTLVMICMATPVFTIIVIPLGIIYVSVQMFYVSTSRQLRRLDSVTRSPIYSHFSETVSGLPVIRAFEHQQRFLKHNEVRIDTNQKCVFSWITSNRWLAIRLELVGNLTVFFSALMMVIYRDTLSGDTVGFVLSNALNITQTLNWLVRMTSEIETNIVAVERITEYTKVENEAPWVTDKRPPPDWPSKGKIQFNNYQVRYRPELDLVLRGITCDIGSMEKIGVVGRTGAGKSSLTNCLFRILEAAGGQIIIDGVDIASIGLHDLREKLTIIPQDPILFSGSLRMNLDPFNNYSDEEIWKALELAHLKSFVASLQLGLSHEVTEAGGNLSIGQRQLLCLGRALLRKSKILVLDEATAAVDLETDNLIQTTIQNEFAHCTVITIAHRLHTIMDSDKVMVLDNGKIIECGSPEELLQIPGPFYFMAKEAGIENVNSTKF

Turning to `COc1cc(C(=O)C(=O)N2CCCC[C@H]2C(=O)O)cc(OC)c1OC`, in data set [1], the Activity entry was “inhibitor [+]”.

Regarding PLURONIC L61, the Activity result in data set [2] and in data set [3] was “inhibitor [+]” throughout.

(Values after ChEMBL document CHEMBL2073746, “Inhibitory effect of the reversal agents V-104, GF120918 and Pluronic L61 on MDR1 Pgp-, MRP1- and MRP2-mediated transport” (Br J Cancer, 2000).)
